Test results as given in PubChem BioAssay AID1845206 (Molecular Pharmacology Branch, DTP, NCI, 2023).

Test system: NCI-H1618 multicellular tumor spheroid viability
Assay: Anticancer human tumor NCI-H1618 cell line growth inhibition;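 further: spheroids exposed to agents for 7 days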
Conditions: for IC50: curve of first compound; for viability, T/C: stronger effect = lower value
Method in brief: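 Complex spheroids of malignant cells with endothelial cells and mesenchymal stem cells; agents alone or combined, from near clinical Cmax (or 10 microM if unknown) down in half-log steps, 0.25% DMSO final.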

[1] = second compound 30 pM, first compound 0.0949 µM
[2] = second compound 30 pM, first compound 0.3 µM
[3] = second compound 30 pM, first compound 0.949 µM
[4] = second compound 30 pM, first compound 3 µM
[5] = second compound 94.9 pM, first compound 0.0949 µM
[6] = second compound 94.9 pM, first compound 0.3 µM
[7] = second compound 94.9 pM, first compound 0.949 µM
[8] = second compound 94.9 pM, first compound 3 µM
[9] = second compound 0.0003 µM, first compound 0.0949 µM
[10] = second compound 0.0003 µM, first compound 0.3 µM
[11] = second compound 0.0003 µM, first compound 0.949 µM
[12] = second compound 0.0003 µM, first compound 3 µM
[13] = second compound 0.000949 µM, first compound 0.0949 µM
[14] = second compound 0.000949 µM, first compound 0.3 µM
[15] = second compound 0.000949 µM, first compound 0.949 µM
[16] = second compound 0.000949 µM, first compound 3 µM
[17] = second compound 0.003 µM, first compound 0.0949 µM
[18] = second compound 0.003 µM, first compound 0.3 µM
[19] = second compound 0.003 µM, first compound 0.949 µM
[20] = second compound 0.003 µM, first compound 3 µM

With `CC(C)n1c(=O)n(C)c2cnc3cc(F)c(-c4ccc(OCCCN5CCCCC5)nc4)cc3c21` + CC[C@@]1(O)C(=O)OCc2c1cc1n(c2=O)Cc2cc3c(CN(C)C)c(O)ccc3nc2-1 as the compound, how does the IC50 (second compound 0.003 µM) read?
The IC50 was over 10000 nM.

What about the IC50 (second compound 0.00949 µM) of the same compound?
Its IC50 is under 31.6 nM.

And the IC50 (second compound 0.03 µM)?
The IC50 was under 31.6 nM.

What about the IC50 (second compound 0.0949 µM) of the same compound?
The IC50 was under 31.6 nM.

What about the IC50 (second compound 0.3 µM) of the same compound?
The IC50 was under 31.6 nM.

What about the viability, T/C (second compound 0.003 µM, first compound 0.0316 µM) of the same compound?
Its viability, T/C is 56.8%.

And the viability, T/C (second compound 0.003 µM, first compound 0.1 µM)?
Its viability, T/C is 51.4%.

What about the viability, T/C (second compound 0.003 µM, first compound 0.316 µM) of the same compound?
The viability, T/C was 51.9%.

What about the viability, T/C (second compound 0.003 µM, first compound 1 µM) of the same compound?
The viability, T/C was 66.7%.

And the viability, T/C (second compound 0.003 µM, first compound 3.16 µM)?
The viability, T/C was 72.7%.

What about the viability, T/C (second compound 0.003 µM, first compound 10 µM) of the same compound?
Its viability, T/C is 38.1%.

And the viability, T/C (second compound 0.00949 µM, first compound 0.0316 µM)?
The viability, T/C was 7.93%.

What about the viability, T/C (second compound 0.00949 µM, first compound 0.1 µM) of the same compound?
The viability, T/C was 4.31%.

And the viability, T/C (second compound 0.00949 µM, first compound 0.316 µM)?
The viability, T/C was 8.14%.

And the viability, T/C (second compound 0.00949 µM, first compound 1 µM)?
Its viability, T/C is 10.5%.

And the viability, T/C (second compound 0.00949 µM, first compound 3.16 µM)?
The viability, T/C was 12.8%.

And the viability, T/C (second compound 0.00949 µM, first compound 10 µM)?
Its viability, T/C is 14.4%.

What about the viability, T/C (second compound 0.03 µM, first compound 0.0316 µM) of the same compound?
Its viability, T/C is 4.99%.

And the viability, T/C (second compound 0.03 µM, first compound 0.1 µM)?
Its viability, T/C is 4.95%.

What about the viability, T/C (second compound 0.03 µM, first compound 0.316 µM) of the same compound?
The viability, T/C was 4.02%.

What about the viability, T/C (second compound 0.03 µM, first compound 1 µM) of the same compound?
Its viability, T/C is 2.3%.

What about the viability, T/C (second compound 0.03 µM, first compound 3.16 µM) of the same compound?
Its viability, T/C is 2.79%.

And the viability, T/C (second compound 0.03 µM, first compound 10 µM)?
Its viability, T/C is 1.82%.

What about the viability, T/C (second compound 0.0949 µM, first compound 0.0316 µM) of the same compound?
The viability, T/C was 4.98%.

And the viability, T/C (second compound 0.0949 µM, first compound 0.1 µM)?
Its viability, T/C is 3.54%.

And the viability, T/C (second compound 0.0949 µM, first compound 0.316 µM)?
The viability, T/C was 8.33%.

What about the viability, T/C (second compound 0.0949 µM, first compound 1 µM) of the same compound?
The viability, T/C was 4.32%.

And the viability, T/C (second compound 0.0949 µM, first compound 3.16 µM)?
Its viability, T/C is 7.17%.

What about the viability, T/C (second compound 0.0949 µM, first compound 10 µM) of the same compound?
The viability, T/C was 4.95%.

And the viability, T/C (second compound 0.3 µM, first compound 0.0316 µM)?
Its viability, T/C is 4.62%.

What about the viability, T/C (second compound 0.3 µM, first compound 0.1 µM) of the same compound?
Its viability, T/C is 4.88%.

What about the viability, T/C (second compound 0.3 µM, first compound 0.316 µM) of the same compound?
The viability, T/C was 4.27%.

What about the viability, T/C (second compound 0.3 µM, first compound 1 µM) of the same compound?
Its viability, T/C is 4.09%.

And the viability, T/C (second compound 0.3 µM, first compound 3.16 µM)?
Its viability, T/C is 5.96%.

And the viability, T/C (second compound 0.3 µM, first compound 10 µM)?
Its viability, T/C is 6.01%.

`Cn1ncnc1[C@H]1c2n[nH]c(=O)c3cc(F)cc(c23)N[C@@H]1c1ccc(F)cc1` + COc1cc2c(cc1O)CCNC21CSC2c3c(OC(C)=O)c(C)c4c(c3C(COC1=O)N1C(O)C3Cc5cc(C)c(OC)c(O)c5C(C21)N3C)OCO4 was tested. Which IC50 (second compound 30 pM) did it give?
Its IC50 is 45.4 nM.

What about the IC50 (second compound 94.9 pM) of the same compound?
Its IC50 is under 9.49 nM.

And the IC50 (second compound 0.0003 µM)?
The IC50 was under 9.49 nM.

What about the IC50 (second compound 0.000949 µM) of the same compound?
Its IC50 is under 9.49 nM.

And the IC50 (second compound 0.003 µM)?
The IC50 was under 9.49 nM.

What about the viability, T/C (second compound 30 pM, first compound 0.00949 µM) of the same compound?
Its viability, T/C is 95.5%.

And the viability, T/C (second compound 30 pM, first compound 0.03 µM)?
Its viability, T/C is 46.9%.

And the viability, T/C [1]?
The viability, T/C was 53%.

And the viability, T/C [2]?
The viability, T/C was 10.2%.

And the viability, T/C [3]?
Its viability, T/C is 2.52%.

What about the viability, T/C [4] of the same compound?
Its viability, T/C is 3.76%.

What about the viability, T/C (second compound 94.9 pM, first compound 0.00949 µM) of the same compound?
Its viability, T/C is 44.3%.

And the viability, T/C (second compound 94.9 pM, first compound 0.03 µM)?
The viability, T/C was 37.8%.

And the viability, T/C [5]?
Its viability, T/C is 3.24%.

What about the viability, T/C [6] of the same compound?
The viability, T/C was 2.22%.

And the viability, T/C [7]?
The viability, T/C was 2.54%.

What about the viability, T/C [8] of the same compound?
Its viability, T/C is 4.25%.

And the viability, T/C (second compound 0.0003 µM, first compound 0.00949 µM)?
The viability, T/C was 10.6%.

And the viability, T/C (second compound 0.0003 µM, first compound 0.03 µM)?
Its viability, T/C is 5.28%.

And the viability, T/C [9]?
Its viability, T/C is 2.76%.

And the viability, T/C [10]?
Its viability, T/C is 2.88%.

What about the viability, T/C [11] of the same compound?
Its viability, T/C is 3.67%.

And the viability, T/C [12]?
The viability, T/C was 2.53%.

And the viability, T/C (second compound 0.000949 µM, first compound 0.00949 µM)?
Its viability, T/C is 4.52%.

What about the viability, T/C (second compound 0.000949 µM, first compound 0.03 µM) of the same compound?
The viability, T/C was 4.93%.

And the viability, T/C [13]?
The viability, T/C was 3.71%.

And the viability, T/C [14]?
The viability, T/C was 4.08%.

And the viability, T/C [15]?
Its viability, T/C is 3.69%.

And the viability, T/C [16]?
Its viability, T/C is 4.06%.

What about the viability, T/C (second compound 0.003 µM, first compound 0.00949 µM) of the same compound?
Its viability, T/C is 2.91%.

And the viability, T/C (second compound 0.003 µM, first compound 0.03 µM)?
Its viability, T/C is 4.29%.

What about the viability, T/C [17] of the same compound?
Its viability, T/C is 5.46%.

What about the viability, T/C [18] of the same compound?
Its viability, T/C is 2.85%.

And the viability, T/C [19]?
Its viability, T/C is 3.44%.

And the viability, T/C [20]?
Its viability, T/C is 2.38%.

Which results are given for `O=C(c1cc(Cc2n[nH]c(=O)c3ccccc23)ccc1F)N1CCN(C(=O)C2CC2)CC1` + COc1cc2c(cc1O)CCNC21CSC2c3c(OC(C)=O)c(C)c4c(c3C(COC1=O)N1C(O)C3Cc5cc(C)c(OC)c(O)c5C(C21)N3C)OCO4?
IC50 (second compound 30 pM): 5700 nM; IC50 (second compound 94.9 pM): 1830 nM; IC50 (second compound 0.0003 µM): < 94.9 nM; IC50 (second compound 0.000949 µM): < 94.9 nM; IC50 (second compound 0.003 µM): < 94.9 nM; viability, T/C [1]: 103%; viability, T/C [2]: 97.2%; viability, T/C [3]: 98.2%; viability, T/C [4]: 88.1%; viability, T/C (second compound 30 pM, first compound 9.49 µM): 19.8%; viability, T/C (second compound 30 pM, first compound 30 µM): 5.66%; viability, T/C [5]: 85.7%; viability, T/C [6]: 76.1%; viability, T/C [7]: 96.7%; viability, T/C [8]: 22.7%; viability, T/C (second compound 94.9 pM, first compound 9.49 µM): 11.6%; viability, T/C (second compound 94.9 pM, first compound 30 µM): 5.96%; viability, T/C [9]: 11.3%; viability, T/C [10]: 2.62%; viability, T/C [11]: 33.6%; viability, T/C [12]: 22%; viability, T/C (second compound 0.0003 µM, first compound 9.49 µM): 3.44%; viability, T/C (second compound 0.0003 µM, first compound 30 µM): 6.61%; viability, T/C [13]: 4.82%; viability, T/C [14]: 3.59%; viability, T/C [15]: 4.37%; viability, T/C [16]: 3.86%; viability, T/C (second compound 0.000949 µM, first compound 9.49 µM): 3.51%; viability, T/C (second compound 0.000949 µM, first compound 30 µM): 3.9%; viability, T/C [17]: 2.74%; viability, T/C [18]: 2.65%; viability, T/C [19]: 3.06%; viability, T/C [20]: 3.24%; viability, T/C (second compound 0.003 µM, first compound 9.49 µM): 3.55%; viability, T/C (second compound 0.003 µM, first compound 30 µM): 3.23%
